The values below come from article PMC9932091, “Two odorant receptors regulate 1-octen-3-ol induced oviposition behavior in the oriental fruit fly” (Communications Biology, 2023).

For this assay, the target named is T1, BdorOR13a/BdorOrco (Bactrocera dorsalis, UniProt A0A0G2UKH1).
T1 construct: gene OR13a; full-length 441-residue OR co-expressed with BdorOrco; pcDNA3.1(+) with mCherry reporter in HEK 293 cells (also pT7Ts in Xenopus oocytes); with Odorant receptor coreceptor
T1 sequence (A0A0G2UKH1 1-441): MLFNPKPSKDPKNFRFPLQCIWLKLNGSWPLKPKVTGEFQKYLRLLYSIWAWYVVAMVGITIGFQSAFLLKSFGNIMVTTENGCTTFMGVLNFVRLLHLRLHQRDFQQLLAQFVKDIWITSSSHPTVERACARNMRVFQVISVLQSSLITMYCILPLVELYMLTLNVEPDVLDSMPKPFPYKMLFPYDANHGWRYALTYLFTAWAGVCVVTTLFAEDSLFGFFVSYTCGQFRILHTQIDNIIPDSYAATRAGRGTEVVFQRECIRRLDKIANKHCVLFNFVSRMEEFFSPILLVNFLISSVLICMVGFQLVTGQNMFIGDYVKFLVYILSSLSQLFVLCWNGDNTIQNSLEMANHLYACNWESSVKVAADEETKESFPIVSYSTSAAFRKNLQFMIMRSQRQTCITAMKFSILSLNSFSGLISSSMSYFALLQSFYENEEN
T1 sequence (B2Z9Z0 1-473 partner): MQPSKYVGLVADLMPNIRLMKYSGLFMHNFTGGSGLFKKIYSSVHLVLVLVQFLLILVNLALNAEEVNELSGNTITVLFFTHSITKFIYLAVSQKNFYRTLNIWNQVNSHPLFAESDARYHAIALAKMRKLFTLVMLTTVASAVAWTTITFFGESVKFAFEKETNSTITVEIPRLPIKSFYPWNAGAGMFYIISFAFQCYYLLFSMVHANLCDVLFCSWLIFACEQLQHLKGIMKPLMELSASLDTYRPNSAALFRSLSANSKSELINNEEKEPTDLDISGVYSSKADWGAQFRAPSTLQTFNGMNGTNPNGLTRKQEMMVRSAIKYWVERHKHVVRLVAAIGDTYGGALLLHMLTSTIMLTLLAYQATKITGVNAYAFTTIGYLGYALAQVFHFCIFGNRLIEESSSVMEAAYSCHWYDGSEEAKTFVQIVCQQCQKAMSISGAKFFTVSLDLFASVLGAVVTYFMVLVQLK
The experiment in a line: calcium imaging (Fluo-4 AM), HEK […] cells. It is filed as cell-based.

Structures are written as SMILES. pEC50: −log10 of the molar value.

Regarding `C=CC(O)CCCCC` (stereo not shown) [1-octen-3-ol], the pEC50 was 4.95.
